# Data: patent US7648966B2, “Mannose-6-phosphonate compounds for the treatment of inflammatory diseases” (Pharmaxis Pty Limited, priority 2003, dated 2010)
# What was measured:
# [1] = tested on: 51Cr-labeled T lymphocyte migration into the spleen; experiment: Inhibition of lymphocyte migration into lymphoid tissue (spleen) in vivo; set-up: species or system Balb/c mice; conditions: 5 mg per mouse iv with labeled cells; spleens removed 1.5 hours after injection; vs negative controls
# Protocol: Lymphocytes were obtained from spleens of 6-8 week old female specific pathogen-free Balb/c mice (19-21 g). Single cell suspensions prepared by conventional means (pushing through a stainless steel screen). Red blood cells were lysed by treating with a solution of bicarbonate buffered ammonium chloride-EDTA (pH 7.3) and the preparation strained through a Falcon 2350 cell strainer. All cell preparative steps were performed on ice. Cell were suspended in a conventional lymphocyte culture medium (DMEM plus glucose, folic acid, L-asparagine, sodium bicarbonate, L-glutamine, sodium pyruvate, HEPES, 2-mercaptoethanol, penicillin, streptomycin, neomycin, and 2% FCS).
# B lymphocytes were depleted by suspending the cells in purified rat anti-mouse CD45/B220 antibody (RA3-6B2 clone; PharMingen, USA) at a concentration of 4×10^7 cells/ml and incubated on ice for 20 minutes. An equal volume of culture medium (as above) was added and the cells centrifuged (200×g) and resuspended at a concentration of 10^7 cells/ml in BioMag goat ant-rat IgG (H&L) (“GARIG”) conjugated to magnetic beads (Bio Mag; Perseptive Diagnostics, Polysciences, Inc., USA). Following a 20 minute incubation on ice, with agitation every 5 minutes, cells binding to the GARIG/anti-CD45/B220 antibody complex were removed using magnetic separation (Dynal MPC-6, Dynal, USA). This procedure was repeated 4 times, resulting in a cell population containing approximately 80-90% T lymphocytes (determined by FACS analysis).
# The cells were then washed in Hanks balanced salt solution (HBSS), resuspended in 5 ml of HBSS, and radiolabeled with ^51Cr for 30 minutes at 37° C. (as described above). The labeled cells were washed in PBS, centrifuged (200×g), and a portion were resuspended at a concentration of 3×10^7 cells/ml in either PBS (negative control) or PBS containing phenyl mannoside 6-phosphate (25 mg/ml in PBS; positive control) or PBS containing the test compound (25 mg/ml), and stored on ice. Cell viability was confirmed throughout the procedures by trypan blue exclusion. Balb/c mice were injected intravenously (iv) into the lateral tail vein with 0.2 ml containing 6×10^6 labeled lymphocytes and 0.2 ml of either PBS (negative control), 5 mg positive control or 5 mg test compound. All groups of mice were weight matched (±0.5 g).
# Spleens from recipient mice were removed 1.5 hours after injection, and the cell-associated radioactivity was determined using a gamma counter (as above). Results of inhibition of lymphocyte migration into the spleen were expressed as a percentage reduction in the CPM of the spleens from treated animals compared with negative controls.
# The phosphono-mannoside compounds of the present invention and their relative inhibition of lymphocyte migration in vivo (compared to negative controls) are presented in Table 2.
# [2] = tested on: picryl chloride-sensitized T lymphocyte migration into the right ear pinna; experiment: Inhibition of T lymphocyte migration into extralymphatic tissue (picryl chloride-painted ear pinna) in vivo; set-up: species or system Balb/c mice; conditions: 5 mg/mouse IV; 9-10 hours after cell infusion
# Description: The foregoing methods are recognized and well understood by those skilled in the art and the underlying principles can be found in any immunology textbook such as those cited above. Here donor animals are sensitized to a self protein (in practice, skin is the easiest tissue to use) by chemically modifying the protein(s) in this tissue thereby allowing the chemical moiety to be ‘seen’ as ‘foreign’ tissue by the immune system. This is done by reacting the skin (“painting”) with a ‘hapten’ which is usually an alkylating or arylating agent that reacts covalently with and thereby modifies protein(s) in the skin. Seven to ten days following sensitization, spleens or draining LNs are taken from the donor animals. […] Within a short time of cell transfer sensitized T cells begin to accumulate in the hapten-modified tissue, 8-24 hours later the tissue can be removed and the cell accumulation assessed. In the case of fluorescently-labeled cells, their accumulation is assessed histologically or histochemically, and in the case of radiolabeled cells, accumulation is assessed by counting radioactive decay in a suitable device. […]
# B lymphocytes were depleted as described in Example 3. The enriched lymphocyte population contained approximately 85-90% T lymphocytes and <1% B cells (determined by FACS analysis). […]
smiles,measurement,setting,value
Cc1ccc(O[C@H]2O[C@H](CCP(=O)(O)O)[C@@H](O)[C@H](O)[C@@H]2O)c(C)c1,% Inhibition of lymphocyte migration into spleens,[1],82.4%
same,Percent inhibition of T cell migration (right ear pinna),[2],56.1%
